BindingDB's records for doi:10.1080/14756360802323720 (National University of Mexico City, 2009)

Target: T1, 3-oxo-5-alpha-steroid 4-dehydrogenase 2 (Homo sapiens, UniProt P31213)
T1 sequence (P31213 whole entry): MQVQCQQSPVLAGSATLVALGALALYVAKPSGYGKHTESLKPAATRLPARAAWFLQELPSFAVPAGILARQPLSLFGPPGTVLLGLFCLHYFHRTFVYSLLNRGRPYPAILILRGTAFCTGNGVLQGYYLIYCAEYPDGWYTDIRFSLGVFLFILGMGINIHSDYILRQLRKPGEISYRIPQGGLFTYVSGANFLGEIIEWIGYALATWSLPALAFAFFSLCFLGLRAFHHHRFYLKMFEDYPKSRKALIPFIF
Experiment: 5Alpha-Reductase Activity Assay
Conditions: pH 6.5; 37 °C
From the text: The IC50 values for the synthesized steroids with human prostate 5alpha-reductase enzyme.

Structure (SMILES) | IC50 [µM]
CC(C)(C)NC(=O)[C@H]1CCC2C3CCC4NC(=O)C=C[C@]4(C)C3CC[C@@]21C (stereo not given in full) [Finasteride, 3] | 0.0085
CC(=O)[C@@]1(OC(=O)c2ccccc2)CCC2C3CCC4=CC(=O)CC[C@]4(C)C3CC[C@@]21C (stereo not given in full) [Steroid, 9a] | 0.36
CC(=O)[C@@]1(OC(=O)c2ccc(Br)cc2)CCC2C3CCC4=CC(=O)CC[C@]4(C)C3CC[C@@]21C (stereo not given in full) [Steroid, 9b] | 0.37
CC(=O)[C@@]1(OC(=O)c2ccccc2)CCC2C3CC[C@@]45O[C@@H]4C(=O)CC[C@]5(C)C3CC[C@@]21C (stereo not given in full) [Steroid, 10a] | 0.013
CC(=O)[C@@]1(OC(=O)c2ccc(Br)cc2)CCC2C3CC[C@@]45O[C@@H]4C(=O)CC[C@]5(C)C3CC[C@@]21C (stereo not given in full) [Steroid, 10b] | 0.0049
